According to the supplement of paper PMC10949913:

Assays:
Test in all cases: area under concentration-response curve (viability) (AUC (a.u.)); higher = less active
Conditions in all cases: 48 h
[1] = system: CU-ACC1
In short: (§1)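 Luminescence from CellTiter-Glo, read after 48 h, measured three adrenocortical carcinoma cell lines treated in 1,536-well plates with library compounds at 11 concentrations. Values were normalised per plate to vehicle and empty-well controls. The AC50 and area under the curve come from fitted concentration-response curves in inhibitory or non-responding classes only.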

[2] = system: CU-ACC2
In short: as §1

[3] = system: NCI-H295R
In short: as §1

SMILES	area under concentration-response curve [1]	area under concentration-response curve [2]	area under concentration-response curve [3]
COc1cc(NC(=O)c2ccc(-c3ccc(Cl)cc3)o2)cc(OC)c1	469	562	536
C[C@@H]1C[C@H]2[C@@H]3CCC\4=C\C(=O)\C=C/[C@]4(C)[C@@]3(F)[C@@H](O)C[C@]2(C)[C@@]1(O)C(=O)CO	515	588	481
OC[C@H]1OCC(O1)[N@@]2C=CC(N)=NC2=O (stereo partly specified)	423	451	494
COc1cccc(Nc2ncnn3ccc(CN4CC[C@@H](N)[C@H](O)C4)c23)c1	399	534	552
COC1=CC=C2/C3=N/CCN3\C(=N/C2=C1OC)NC(=O)C4=CC=CN=C4	662	698	619
O=[N+]([O-])c1cn2c(n1)OC[C@@H](OCc1ccc(OC(F)(F)F)cc1)C2	528	574	523
OC[C@H]1O[C@@H](O[C@@H]2[C@@H](CO)O[C@](O)(CO)[C@H]2O)[C@H](O)[C@@H](O)[C@H]1O	508	569	532
Cc1onc(-c2ccc(F)cc2)c1COc1ccc(C(=O)N2CC[S+](=O)([O-])CC2)cn1	596	646	616
Nc1nc(OCc2cc(Br)cs2)c2[nH]cnc2n1	516	616	552
O=C(COCC(=O)N1CCN(C(c2ccccc2)c2ccccc2)CC1)Nc1ccc(Cl)cc1C(=O)O	–	529	538
COC(=O)N(CC(=O)O)Cc1cccc(OCc2nc(-c3ccc(Cl)cc3)oc2C)c1	–	553	452
OCc1ccccc1O[C@@H]1O[C@H](CO)[C@@H](O)[C@H](O)[C@H]1O	–	616	563
CC[S+]([O-])(=O)N1CCC(CC1)C(C)[N]2C(=C(C(=O)NC\C3=C(OC)\C=C(\C)NC3=O)C4=C2C=CC=C4)C (stereo unspecified)	–	562	511
CN1C(=O)\C(=C/C2=C1N=C(NC3CCOCC3)N=C2)OC4=C(F)C=C(F)C=C4	–	611	565
O=C(c1ccc(F)cc1)N1CCC[C@H](c2nc(-c3ccc(F)cc3)no2)C1	–	624	576
O=C(NC[C@H](O)CN1CCc2ccccc2C1)c1cc(NC2COC2)ncn1	–	367	429
CN1C(=O)COc2c(C(=O)NC3CN4CCC3CC4)cc(Cl)cc21 (stereo unspecified)	–	550	533
CCc1cccc(CC)c1NC(=O)N1Cc2[nH]nc(NC(=O)c3ccc(N4CCN(C)CC4)cc3)c2C1	–	614	597
CC/1=C/2C[C@H]3C(=C)CCC[C@]3(C)/C=C2OC1=O	–	593	524
CN1CCN(c2ccc([N+](=O)[O-])c3no[n+]([O-])c23)CC1	–	630	583
O=C1c2c(O)cc(O)cc2O[C@H](c2ccc(O)c(O)c2)[C@H]1O	–	583	539

SMILES	area under concentration-response curve [1]	area under concentration-response curve [2]	area under concentration-response curve [3]
C=Cc1cc(O)cc2nc(-c3ccc(O)c(F)c3)oc12	–	587	550
C/C(NNC(=O)c1cccc([S+](=O)([O-])N2CCOCC2)c1)=C1\C=C(Cl)C=CC1=O	–	585	545
CC/C(=C(\c1ccccc1)c1ccc(OCCN(C)C)cc1)c1ccccc1	–	455	554
CN(C(Cc1ccc(OS(=O)(=O)c2cccc3cnccc23)cc1)C(=O)N1CCN(c2ccccc2)CC1)S(=O)(=O)c1cccc2cnccc12 (stereo unspecified)	–	627	576
CC/1=N/C2=CC=CC(=C2C(=O)N1C3CCC(=O)NC3=O)N (stereo unspecified)	–	635	575
CC[C@H](NC1=C2[NH]C=NC2=NC=N1)/C3=C(/C(=O)C4=CC=CC=C4O3)C5=CC=CC(=C5)F	–	432	488
Cc1c(-c2c(-c3ccc(F)o3)sc3ncnc(O[C@@H](Cc4ccccc4OCc4ccnn4CC(F)(F)F)C(=O)O)c23)ccc(OCCN2CCN(C)CC2)c1Cl	–	600	529
C[C@]12CCC\3=C\4CCC(=O)\C=C4CC[C@H]3[C@@H]1CC[C@@]2(O)CC#N	–	649	606
Cn1c(-c2ccccc2C(F)(F)F)nnc1C12CCC(c3noc(C4CC(F)(F)C4)n3)(CC1)CC2	–	594	546
Nc1nc(N)c2nc(-c3cccc(Cl)c3)c(N)nc2n1	–	596	520
CC1=C(C=CC=C1)N2/N=C(\C=C/C2=O)C3=C4NC[C@@H](CO)C[N]4N=C3C5=CC=C(F)C=C5	–	422	435
CCc1ccc2nc(Nc3cc(Cc4ccccc4)nc(N[C@H]4CC[C@H](O)CC4)n3)sc2c1	–	620	580
Cc1cc(N2CCOCC2)ccc1Nc1nc(NC2CCCCC2)c2nc[nH]c2n1	–	587	539
CCCC[N+]1(C)[C@@H]2CC(OC(=O)[C@H](CO)c3ccccc3)C[C@H]1[C@@H]1O[C@@H]12 (stereo partly specified)	–	630	568
Cc1cnc(-c2ccccc2C(C)C)nc1NCc1ccc(-n2ccnn2)cc1	–	614	563
NC(=O)c1ccc(N(C(N)=O)c2c(F)cccc2F)nc1-c1ccc(F)cc1F	–	440	471
CC(NC(C)(C)C)C(=O)c1cccc(Cl)c1 (stereo unspecified)	–	526	509
C[S+](=O)([O-])c1ccc(-c2cnc(N)c(C(=O)Nc3ccccc3)n2)cc1	–	473	534
NNC(=O)c1ccncc1	–	500	554
CC[C@]12CC[C@H]3[C@@H](CCC/4=C/C(=O)CC[C@H]34)[C@@H]1\C=C/[C@@]2(O)C#C	–	623	602
